Results as given in patent US20110287934A1, “HERBICIDAL COMPOSITION FOR TOLERANT OR RESISTANT RICE CROPS” (priority 2010, published 2011).

Experiments:
Type in all cases: in vivo
Amaranthus retroflexus = assay: Greenhouse trial, efficacy with respect to Amaranthus retroflexus; conditions: post-emergence, 2-3-leaf stage, scoring 13 days after treatment
Procedure: (§1) The trials were carried out under greenhouse conditions (test pots, diameter 8 cm, spray application using 300 l of water/hectare, 2 repetitions, 6 to 8 plants per pot, permanently flooded).
(§2) Application was by post-emergence treatment, the species of the harmful plants and their stage of growth at the time of treatment are indicated in the individual results tables. The application rates of the herbicidally active compounds used on their own or in combinations are likewise listed in the individual results tables.
(§3) Scoring was by visual comparison of the treated with the untreated controls (0-100% scale, 13-15 days after the application) (see details in the respective tables).
(§4) 4.2 Abbreviations Used in Tables 4 to 6 • application rate g/ai=application rate in grams of active compound per hectare • ai=active ingredient (of an active compound content of 100%) • GA=glufosinate-ammonium • GA-tolerant=rice which is tolerant to GA (GMO: LL-rice) • E^C=expected value according to Colby, (E^C=A+B−A×B/100) • =for ternary combinations: (A+B)+C−(A+B)×C/100 • E^A=expected value according to the addition method (E^A=A+B) • Δ=difference (%) between observed value—%—vs. expected value (%) (observed value minus expected value) examination: observed values for (A), (B) and (A)+(B) in scoring: observed value (%) greater >than E^C/E^A:->synergism (+Δ) • observed value (%) equal to =E^C/E^A->additive effect (+−0Δ) • observed value (%) smaller <than E^A/E^C->antagonism (−Δ)

Leptochloa chinensis = assay: Greenhouse trial, efficacy with respect to Leptochloa chinensis; conditions: post-emergence
Procedure: as §1, §2, §3, §4

rice (GA-tolerant) = assay: Greenhouse trial, crop plant compatibility in rice (GA-tolerant)
Procedure: as §1, §3

Cyperus esculentus = assay: Greenhouse trial, efficacy with respect to Cyperus esculentus; conditions: post-emergence, 1-3-leaf stage, scoring 15 days after application
Procedure: as §1, §2, §3, §4

[1] = Dinebra chinensis, 360 h, read-out: Herbicidal activity % Leptochloa chinensis
[2] = 50 g of ai/ha, post-emergence, 1-3-leaf stage, scoring 15 days after application (Table 5)
[3] = 100 g of ai/ha, post-emergence, 1-3-leaf stage, scoring 15 days after application (Table 5)

Compound: CCN(C(=O)n1nnn(-c2ccccc2Cl)c1=O)C1CCCCC1 [C30, fentrazamide]
- Herbicidal efficacy % Amaranthus retroflexus (Amaranthus retroflexus; 75 g of ai/ha): 30%

Compound: COC(=O)c1nc(-c2ccc(Cl)c(OC)c2F)cc(N)c1Cl [B1.1, methyl 4-amino-3-chloro-6-(4-chloro-2-fluoro-3-methoxyphenyl)pyridine-2-carboxylate]
- inhibition at 20 g/ha (Leptochloa chinensis; [1]): 45%
- Damage to crop plants (%) rice (GA-tolerant) (≦15-20% acceptable) (rice (GA-tolerant); in vivo): 0%
- Herbicidal efficacy % Cyperus esculentus (Cyperus esculentus; 20 g of ai/ha): 60%
- Herbicidal efficacy % Amaranthus retroflexus (Amaranthus retroflexus; 20 g of ai/ha): 90%

Compound: COC(=O)c1ccccc1S(=O)(=O)NC(=O)Nc1nc(C)nc(OC)n1 [C43, metsulfuron-methyl]
- Damage to crop plants (%) rice (GA-tolerant) (≦15-20% acceptable) (rice (GA-tolerant); in vivo): 15%
- Herbicidal efficacy % Cyperus esculentus (Cyperus esculentus; 3 g of ai/ha): 0%

Compound: CCC(=O)Nc1ccc(Cl)c(Cl)c1 [C55, propanil]
- Damage to crop plants (%) rice (GA-tolerant) (≦15-20% acceptable) (rice (GA-tolerant); 500 g of ai/ha, post-emergence, 1-3-leaf stage, scoring 15 days after application (Table 5)): 0%
- Herbicidal efficacy % Cyperus esculentus (Cyperus esculentus; 500 g of ai/ha): 10%

Compound: CS(=O)(=O)c1ccc(C(=O)C2C(=O)CCCC2=O)c(Cl)c1COCC1CCCO1 (centres unmarked) [C64, tefuryltrione]
- Damage to crop plants (%) rice (GA-tolerant) (≦15-20% acceptable) (rice (GA-tolerant); [2]): 0%
- Herbicidal efficacy % Cyperus esculentus (Cyperus esculentus; 50 g of ai/ha): 30%

Compound: COc1nc(OC)nc(C(=O)c2cccc(F)c2N(C)S(=O)(=O)C(F)F)n1 [C72, AE 196 triafamone]
- Damage to crop plants (%) rice (GA-tolerant) (≦15-20% acceptable) (rice (GA-tolerant); 6 g of ai/ha, post-emergence, 1-3-leaf stage, scoring 15 days after application (Table 5)): 0%
- Herbicidal efficacy % Cyperus esculentus (Cyperus esculentus; 6 g of ai/ha): 65%

Compound: CP(=O)(O)CCC(N)C(=O)O (centres unmarked) [A1.1, glufosinate-ammonium]
- inhibition at 100 g/ha (Leptochloa chinensis; [1]): 10%
- Damage to crop plants (%) rice (GA-tolerant) (≦15-20% acceptable) (rice (GA-tolerant); [3]): 10%
- Damage to crop plants (%) rice (GA-tolerant) (≦15-20% acceptable) (rice (GA-tolerant); 100 g of ai/ha, post-emergence, 1-3-leaf stage, scoring 15 days after application (Table 6)): 10%
- Damage to crop plants (%) rice (GA-tolerant) (≦15-20% acceptable) (rice (GA-tolerant); 100 g of ai/ha, post-emergence, 2-3-leaf stage, scoring 13 days after treatment): 10%
- Herbicidal efficacy % Cyperus esculentus (Cyperus esculentus; 100 g of ai/ha): 25%
- Herbicidal efficacy % Amaranthus retroflexus (Amaranthus retroflexus; 100 g of ai/ha): 55%

Compound: O=C(O)COc1ccc(Cl)cc1Cl [C20, 2,4-D]
- Damage to crop plants (%) rice (GA-tolerant) (≦15-20% acceptable) (rice (GA-tolerant); [3]): 0%
- Herbicidal efficacy % Cyperus esculentus (Cyperus esculentus; 100 g of ai/ha): 20%

Compound: C[C@@H](Oc1ccc(Oc2ccc(C#N)cc2F)cc1)C(=O)O [C19, cyhalofop]
- Damage to crop plants (%) rice (GA-tolerant) (≦15-20% acceptable) (rice (GA-tolerant); [2]): 0%
- Herbicidal efficacy % Cyperus esculentus (Cyperus esculentus; 50 g of ai/ha): 10%

Compound: CCOc1ccccc1OS(=O)(=O)NC(=O)Nc1nc(OC)cc(OC)n1 [C24, ethoxysulfuron]
- Damage to crop plants (%) rice (GA-tolerant) (≦15-20% acceptable) (rice (GA-tolerant); in vivo): 0%
- Herbicidal efficacy % Amaranthus retroflexus (Amaranthus retroflexus; 10 g of ai/ha): 40%

Compound: CC(C)Oc1cc(-n2nc(C(C)(C)C)oc2=O)c(Cl)cc1Cl [C50, oxadiazon]
- Damage to crop plants (%) rice (GA-tolerant) (≦15-20% acceptable) (rice (GA-tolerant); in vivo): 0%
- Herbicidal efficacy % Cyperus esculentus (Cyperus esculentus; 3 g of ai/ha): 10%

Compound: CCOC(=O)[C@@H](C)Oc1ccc(Oc2nc3ccc(Cl)cc3o2)cc1 [C29, fenoxaprop-P-ethyl]
- Damage to crop plants (%) rice (GA-tolerant) (≦15-20% acceptable) (rice (GA-tolerant); 10 g of ai/ha, post-emergence, 2-3-leaf stage, scoring 13 days after treatment): 10%
- Herbicidal efficacy % Amaranthus retroflexus (Amaranthus retroflexus; 10 g of ai/ha): 10%

Compound: CCOC(=O)c1cnn(C)c1S(=O)(=O)NC(=O)Nc1nc(OC)cc(OC)n1 [C59, pyrazosulfuron-ethyl]
- Damage to crop plants (%) rice (GA-tolerant) (≦15-20% acceptable) (rice (GA-tolerant); 50 g of ai/ha, post-emergence, 2-3-leaf stage, scoring 13 days after treatment): 10%
- Herbicidal efficacy % Amaranthus retroflexus (Amaranthus retroflexus; 50 g of ai/ha): 60%

Compound: oxadiargyl [C49]
- Herbicidal activity % Leptochloa chinensis (Leptochloa chinensis; 25 g of ai/ha, 1-3-leaf stage, scoring 15 days after application): 70%

Compound: CCC(CC)Nc1c([N+](=O)[O-])cc(C)c(C)c1[N+](=O)[O-] [C53, pendimethalin]
- Damage to crop plants (%) rice (GA-tolerant) (≦15-20% acceptable) (rice (GA-tolerant); 200 g of ai/ha, post-emergence, 2-3-leaf stage, scoring 13 days after treatment): 10%
- Herbicidal efficacy % Amaranthus retroflexus (Amaranthus retroflexus; 200 g of ai/ha): 50%

Compound: Cc1nn(-c2cc(CC(Cl)C(=O)O)c(Cl)cc2F)c(=O)n1C(F)F (centres unmarked) [C13, carfentrazone]
- Damage to crop plants (%) rice (GA-tolerant) (≦15-20% acceptable) (rice (GA-tolerant); 4 g of ai/ha, post-emergence, 1-3-leaf stage, scoring 15 days after application (Table 5)): 10%
- Herbicidal efficacy % Cyperus esculentus (Cyperus esculentus; 4 g of ai/ha): 0%

Compound: CC1(C)CON(Cc2ccccc2Cl)C1=O [C17, clomazone]
- Damage to crop plants (%) rice (GA-tolerant) (≦15-20% acceptable) (rice (GA-tolerant); [3]): 0%
- Herbicidal efficacy % Cyperus esculentus (Cyperus esculentus; 100 g of ai/ha): 10%
